Reference: ChEMBL document CHEMBL4342527, “Discovery of Novel Fungal Lanosterol 14α-Demethylase (CYP51)/Histone Deacetylase Dual Inhibitors to Treat Azole-Resistant Candidiasis” (J Med Chem, 2020)
≈ marks a conversion by molar mass, not a printed value.

Assays:
Candida albicans [1] = test: Antifungal activity against azole-resistant Candida albicans 0304103 after 48 hrs by spectrophotometry-based serial microdilution method; format: functional; conditions: Candida albicans, 0304103, 48 h
Candida tropicalis = test: Antifungal activity against azole-resistant Candida tropicalis 5008 after 48 hrs by spectrophotometry-based serial microdilution method; format: functional; conditions: Candida tropicalis, 5008, 48 h
Candida albicans [2] = test: Antifungal activity against azole-resistant Candida albicans 4108 after 48 hrs by spectrophotometry-based serial microdilution method; format: functional; conditions: Candida albicans, 4108, 48 h
Cryptococcus neoformans = test: Antifungal activity against azole-sensitive Cryptococcus neoformans H99 after 72 hrs by spectrophotometry-based serial microdilution method; format: functional, var grubii H99
Candida albicans [3] = test: Antifungal activity against azole-resistant Candida albicans 7781 after 48 hrs by spectrophotometry-based serial microdilution method; format: functional; conditions: Candida albicans, 7781, 48 h
Candida albicans [4] = test: Antifungal activity against azole-sensitive Candida albicans SC5314 after 48 hrs by spectrophotometry-based serial microdilution method; format: functional
[5] = Cryptococcus neoformans, var grubii H99 , 72 h, read-out: MIC80
[6] = Candida albicans, SC5314, 48 h, read-out: MIC80

| SMILES | MIC80 (Candida albicans [1]) | MIC80 (Candida tropicalis) | MIC80 (Candida albicans [2]) | MIC80 (Cryptococcus neoformans; [5]) | MIC80 (Candida albicans [3]) | MIC80 (Candida albicans [4]; [6]) | MIC80 (Cryptococcus neoformans) | MIC80 (Candida albicans [4]) |
| --- | --- | --- | --- | --- | --- | --- | --- | --- |
| CN(Cc1ccc(-n2cnn(CCCCCCCCC(=O)NO)c2=O)cc1)CC(O)(Cn1cncn1)c1ccc(F)cc1F (racemic) | 4 µg/mL (≈ 6.53 µM) | 8 µg/mL (≈ 13.1 µM) | 32 µg/mL (≈ 52.2 µM) | 4 µg/mL (≈ 6.53 µM) | 4 µg/mL (≈ 6.53 µM) | 2 µg/mL (≈ 3.26 µM) |  |  |
| CN(Cc1ccc(OCCCCCC(=O)NO)cc1)CC(O)(Cn1cncn1)c1ccc(F)cc1F (racemic) | 2 µg/mL (≈ 3.97 µM) | 8 µg/mL (≈ 15.9 µM) | 4 µg/mL (≈ 7.94 µM) | 1 µg/mL (≈ 1.99 µM) | 1 µg/mL (≈ 1.99 µM) | 1 µg/mL (≈ 1.99 µM) |  |  |
| O=C(NO)c1ccc(OCCCc2ncnn2CC(O)(Cn2cncn2)c2ccc(F)cc2F)cc1 (racemic) | 32 µg/mL (≈ 64.1 µM) | > 64 µg/mL | 64 µg/mL (≈ 128 µM) | 64 µg/mL (≈ 128 µM) | 8 µg/mL (≈ 16 µM) | 64 µg/mL (≈ 128 µM) |  |  |
| CC(C)N(Cc1ccc(OCCCOc2ccc(CC(=O)NO)cc2)cc1)CC(O)(Cn1cncn1)c1ccc(F)cc1F (racemic) | 2 µg/mL (≈ 3.28 µM) | 4 µg/mL (≈ 6.56 µM) | 4 µg/mL (≈ 6.56 µM) | 2 µg/mL (≈ 3.28 µM) | 2 µg/mL (≈ 3.28 µM) | 2 µg/mL (≈ 3.28 µM) |  |  |
| CN(Cc1ccc(OCCCOc2ccc(C(=O)NO)cc2)cc1)CC(O)(Cn1cncn1)c1ccc(F)cc1F (racemic) | 0.5 µg/mL (≈ 0.881 µM) | 0.25 µg/mL (≈ 0.44 µM) | 1 µg/mL (≈ 1.76 µM) | 0.5 µg/mL (≈ 0.881 µM) | 1 µg/mL (≈ 1.76 µM) | 0.125 µg/mL (≈ 0.22 µM) |  |  |
| CN(Cc1ccc(OCCCCCCC(=O)NO)cc1)CC(O)(Cn1cncn1)c1ccc(F)cc1F (racemic) | 1 µg/mL (≈ 1.93 µM) | 2 µg/mL (≈ 3.86 µM) | 1 µg/mL (≈ 1.93 µM) | 1 µg/mL (≈ 1.93 µM) | 1 µg/mL (≈ 1.93 µM) | 1 µg/mL (≈ 1.93 µM) |  |  |
| CN(Cc1ccc(-n2cnn(CCCCCCCC(=O)NO)c2=O)cc1)CC(O)(Cn1cncn1)c1ccc(F)cc1F (racemic) | 8 µg/mL (≈ 13.4 µM) | 8 µg/mL (≈ 13.4 µM) | 64 µg/mL (≈ 107 µM) | 2 µg/mL (≈ 3.34 µM) | 8 µg/mL (≈ 13.4 µM) | 16 µg/mL (≈ 26.7 µM) |  |  |
| O=C(NO)c1ccc(OCCCCc2ncnn2CC(O)(Cn2cncn2)c2ccc(F)cc2F)cc1 (racemic) | 32 µg/mL (≈ 62.3 µM) | > 64 µg/mL | > 64 µg/mL | 64 µg/mL (≈ 125 µM) | > 64 µg/mL | 32 µg/mL (≈ 62.3 µM) |  |  |
| CN(Cc1ccc(-n2cnn(CCCOc3ccc(CC(=O)NO)cc3)c2=O)cc1)CC(O)(Cn1cncn1)c1ccc(F)cc1F (racemic) | 32 µg/mL (≈ 49.3 µM) | 4 µg/mL (≈ 6.17 µM) | 32 µg/mL (≈ 49.3 µM) | 8 µg/mL (≈ 12.3 µM) | 4 µg/mL (≈ 6.17 µM) | 64 µg/mL (≈ 98.7 µM) |  |  |
| C[C@@H](c1ncncc1F)[C@](O)(Cn1cncn1)c1ccc(F)cc1F [VORICONAZOLE] | > 64 µg/mL | > 64 µg/mL | > 64 µg/mL | 0.0625 µg/mL (≈ 0.179 µM) | > 64 µg/mL | 0.125 µg/mL (≈ 0.358 µM) |  |  |
| CN(Cc1ccc(CCCOc2ccc(CC(=O)NO)cc2)cc1)CC(O)(Cn1cncn1)c1ccc(F)cc1F (racemic) | 0.5 µg/mL (≈ 0.884 µM) | 2 µg/mL (≈ 3.54 µM) | 0.5 µg/mL (≈ 0.884 µM) | 0.5 µg/mL (≈ 0.884 µM) | 0.25 µg/mL (≈ 0.442 µM) | 0.125 µg/mL (≈ 0.221 µM) |  |  |
| CN(Cc1ccc(CCCCOc2ccc(CC(=O)NO)cc2)cc1)CC(O)(Cn1cncn1)c1ccc(F)cc1F (racemic) | 0.5 µg/mL (≈ 0.863 µM) | 0.5 µg/mL (≈ 0.863 µM) | 1 µg/mL (≈ 1.73 µM) | 0.5 µg/mL (≈ 0.863 µM) | 1 µg/mL (≈ 1.73 µM) | 0.125 µg/mL (≈ 0.216 µM) |  |  |
| CN(Cc1ccc(-n2cnn(CCOc3ccc(CC(=O)NO)cc3)c2=O)cc1)CC(O)(Cn1cncn1)c1ccc(F)cc1F (racemic) | 4 µg/mL (≈ 6.3 µM) | 8 µg/mL (≈ 12.6 µM) | 32 µg/mL (≈ 50.4 µM) | 4 µg/mL (≈ 6.3 µM) | 4 µg/mL (≈ 6.3 µM) | 2 µg/mL (≈ 3.15 µM) |  |  |
| CN(Cc1ccc(-n2cnn(CCCCC(=O)NO)c2=O)cc1)CC(O)(Cn1cncn1)c1ccc(F)cc1F (racemic) | 64 µg/mL (≈ 115 µM) | > 64 µg/mL | > 64 µg/mL | 64 µg/mL (≈ 115 µM) | > 64 µg/mL | 32 µg/mL (≈ 57.5 µM) |  |  |
| CN(Cc1cccc(OCCCOc2ccc(CCC(=O)NO)cc2)c1)CC(O)(Cn1cncn1)c1ccc(F)cc1F (racemic) | 8 µg/mL (≈ 13.4 µM) | 8 µg/mL (≈ 13.4 µM) | 4 µg/mL (≈ 6.72 µM) | 2 µg/mL (≈ 3.36 µM) | 8 µg/mL (≈ 13.4 µM) | 4 µg/mL (≈ 6.72 µM) |  |  |
| CN(Cc1ccccc1OCCCOc1ccc(CCC(=O)NO)cc1)CC(O)(Cn1cncn1)c1ccc(F)cc1F (racemic) | 1 µg/mL (≈ 1.68 µM) | 64 µg/mL (≈ 107 µM) | 2 µg/mL (≈ 3.36 µM) | 2 µg/mL (≈ 3.36 µM) | 1 µg/mL (≈ 1.68 µM) | 1 µg/mL (≈ 1.68 µM) |  |  |
| CN(Cc1ccc(CCCC(=O)Nc2ccc(CC(=O)NO)cc2)cc1)CC(O)(Cn1cncn1)c1ccc(F)cc1F (racemic) | 1 µg/mL (≈ 1.69 µM) | 32 µg/mL (≈ 54 µM) | 1 µg/mL (≈ 1.69 µM) | 1 µg/mL (≈ 1.69 µM) | 1 µg/mL (≈ 1.69 µM) | 1 µg/mL (≈ 1.69 µM) |  |  |
| CN(Cc1cccc(OCCCOc2ccc(CC(=O)NO)cc2)c1)CC(O)(Cn1cncn1)c1ccc(F)cc1F (racemic) | 4 µg/mL (≈ 6.88 µM) | 2 µg/mL (≈ 3.44 µM) | 2 µg/mL (≈ 3.44 µM) | 1 µg/mL (≈ 1.72 µM) | 2 µg/mL (≈ 3.44 µM) | 2 µg/mL (≈ 3.44 µM) |  |  |
| CCN(Cc1ccc(OCCCOc2ccc(CC(=O)NO)cc2)cc1)CC(O)(Cn1cncn1)c1ccc(F)cc1F (racemic) | 1 µg/mL (≈ 1.68 µM) | 4 µg/mL (≈ 6.72 µM) | 4 µg/mL (≈ 6.72 µM) | 1 µg/mL (≈ 1.68 µM) | 1 µg/mL (≈ 1.68 µM) | 0.25 µg/mL (≈ 0.42 µM) |  |  |
| O=C(NO)c1ccc(OCCCc2ncn(CC(O)(Cn3cncn3)c3ccc(F)cc3F)n2)cc1 (racemic) | 64 µg/mL (≈ 128 µM) | 64 µg/mL (≈ 128 µM) | 32 µg/mL (≈ 64.1 µM) | 64 µg/mL (≈ 128 µM) | 8 µg/mL (≈ 16 µM) | 8 µg/mL (≈ 16 µM) |  |  |
| CN(Cc1ccccc1OCCCOc1ccc(CC(=O)NO)cc1)CC(O)(Cn1cncn1)c1ccc(F)cc1F (racemic) | 2 µg/mL (≈ 3.44 µM) | 2 µg/mL (≈ 3.44 µM) | 2 µg/mL (≈ 3.44 µM) | 0.5 µg/mL (≈ 0.86 µM) | 2 µg/mL (≈ 3.44 µM) | 1 µg/mL (≈ 1.72 µM) |  |  |
| O=C(Cc1ccc(OCCCc2ncn(CC(O)(Cn3cncn3)c3ccc(F)cc3F)n2)cc1)NO (racemic) | 32 µg/mL (≈ 62.3 µM) | 64 µg/mL (≈ 125 µM) | > 64 µg/mL | 32 µg/mL (≈ 62.3 µM) | 8 µg/mL (≈ 15.6 µM) | 32 µg/mL (≈ 62.3 µM) |  |  |
| CN(Cc1ccc(OCCCCC(=O)NO)cc1)CC(O)(Cn1cncn1)c1ccc(F)cc1F (racemic) | 2 µg/mL (≈ 4.09 µM) | 8 µg/mL (≈ 16.3 µM) | 8 µg/mL (≈ 16.3 µM) | 2 µg/mL (≈ 4.09 µM) | 2 µg/mL (≈ 4.09 µM) | 2 µg/mL (≈ 4.09 µM) |  |  |
| CCC(C)n1ncn(-c2ccc(N3CCN(c4ccc(OCC5COC(Cn6cncn6)(c6ccc(Cl)cc6Cl)O5)cc4)CC3)cc2)c1=O (stereo not given) [ITRACONAZOLE] | > 64 µg/mL | > 64 µg/mL | > 64 µg/mL | 0.125 µg/mL (≈ 0.177 µM) | > 64 µg/mL | 0.5 µg/mL (≈ 0.709 µM) |  |  |
| CN(Cc1ccc(CCCC(=O)Nc2ccc(C(=O)NO)cc2)cc1)CC(O)(Cn1cncn1)c1ccc(F)cc1F (racemic) | 16 µg/mL (≈ 27.7 µM) | 8 µg/mL (≈ 13.8 µM) | 32 µg/mL (≈ 55.3 µM) | 8 µg/mL (≈ 13.8 µM) | 8 µg/mL (≈ 13.8 µM) | 4 µg/mL (≈ 6.91 µM) |  |  |
| O=C(Cc1ccc(OCCCOc2ccc(CN(CC(O)(Cn3cncn3)c3ccc(F)cc3F)C3CC3)cc2)cc1)NO (racemic) | 8 µg/mL (≈ 13.2 µM) | 16 µg/mL (≈ 26.3 µM) | 32 µg/mL (≈ 52.7 µM) | 4 µg/mL (≈ 6.58 µM) | 4 µg/mL (≈ 6.58 µM) | 8 µg/mL (≈ 13.2 µM) |  |  |
| CN(Cc1ccc(OCCCCCCCC(=O)NO)cc1)CC(O)(Cn1cncn1)c1ccc(F)cc1F (racemic) | 0.5 µg/mL (≈ 0.941 µM) | 1 µg/mL (≈ 1.88 µM) | 0.5 µg/mL (≈ 0.941 µM) | 0.5 µg/mL (≈ 0.941 µM) | 0.5 µg/mL (≈ 0.941 µM) | 0.25 µg/mL (≈ 0.47 µM) |  |  |
| O=C(Cc1ccc(OCCCc2ncnn2CC(O)(Cn2cncn2)c2ccc(F)cc2F)cc1)NO (racemic) | 32 µg/mL (≈ 62.3 µM) | > 64 µg/mL | > 64 µg/mL | 64 µg/mL (≈ 125 µM) | 16 µg/mL (≈ 31.2 µM) | 8 µg/mL (≈ 15.6 µM) |  |  |
| O=C(CCCCCCC(=O)Nc1ccccc1)NO [VORINOSTAT] |  |  |  |  |  |  | >64 µg/mL | >64 µg/mL |
